SMILES strings stand for the structures. Where only a bound is given, the exact number is not on record here.

One data set deals with NHDF-Neo cells. Description: Cell cycle analysis by flow cytometry, NHDF-Neo. In kind it is cell-based, human. Particulars: IC50 dose, 24 h. The source says: After determining the type of cell death caused by the test compounds, the flow cytometry technique was used to study their influence on potential changes in the course of the cell cycle of the HCT-116, MCF-7, and NHDF-Neo lines. The cell cycle is the sequence of growth and division of cells, both normal and cancerous. This process begins from the resting phase (G0) through the active growth phases (G1, S, G2), leading to mitosis (M) in which the cell’s nucleus divides. […] After this time, cells were harvested and treated with a buffer to lysate the cells and isolate the cell nuclei. Propidium iodide was used to assess the amount of DNA in particular phases of the cell cycle. Histograms of DNA content in cells are presented in the Supplementary Materials (Figure S74).
The cell cycle and the type of cell death induced by the test compounds were measured by using flow cytometry according to the manufacturer’s protocol. The cells were seeded into 6-well plates at a density of 3 × 10^5 (HCT-116) or 4 × 10^5 (MCF-7, NHDF-Neo) per well (3 mL) and allowed to attach for 24 h under standard conditions with 5% CO2 at 37 °C. The following day, the medium was removed and cells were treated with solutions of test compounds in fresh medium at a dose equal to their IC50 values. Control cells were grown with fresh medium supplemented with 0.5% DMSO. After 24 h of incubation, the cells were collected by trypsinization. Then, samples were centrifuged (3 min, 2000 rpm, RT) and washed with PBS, after which the cells were centrifuged again (3 min, 2000 rpm, RT) and the supernatant was carefully removed. The resulting precipitate contained cells, which were used for flow cytometry experiments.
For cell cycle analysis, the cells were suspended in 300 μL of hypotonic buffer (consisting of: sodium citrate dihydrate 1 g/L, propidium iodide (PI) 1 mg/mL, RNAse A 10 mg/mL (EURx, Gdańsk, Poland), Triton X-100 1:9), mixed gently and incubated in the dark at room temperature for 20–30 min. […]

The test system of data set [1] is HCT-116 cells. Put plainly: MTT viability with GLUT1 inhibitor EDG, HCT-116. The class given is cell-based, human. The settings on record: 100 µM EDG, 72 h. Here is the method:
(§1) To investigate the possible interaction of the tested compounds with glucose receptors and thus to check whether they target the Warburg effect, tests of the influence of the presence of the GLUT inhibitor on the effectiveness of the glycoconjugates were carried out. For this, cells were treated each time with the test compounds in the presence of 100 µM of the GLUT1 inhibitor 4,6-O-ethylidene-α-D-glucose (EDG).

The test system of data set [2] is MCF-7 cells. Description: Annexin V-FITC/PI apoptosis flow cytometry, MCF-7. In kind it is cell-based, human. Particulars: IC50 dose, 24 h. The text has this: (§2) Apoptosis is a natural biological process involving programmed cell death and plays an important role in maintaining correct homeostasis between cell proliferation and cell death. This is in contrast to necrosis, which is accompanied by acute inflammation, preceded by cell degradation due to the loss of the integrity of the cell membrane. It is possible to distinguish viable cells from apoptotic and necrotic cell fractions using Annexin V-FITC and Propidium Iodide (PI). Annexin V-FITC labels phosphatidylserine residues that, after the start of apoptosis, are located on the outer surface of the cell membrane, enabling the identification of cells in the early stages of apoptosis. PI binds stoichiometrically to intracellular DNA during late apoptosis and necrosis when the cell membrane has been damaged. This combination allows for the differentiation of early apoptotic (A+/P−), late apoptotic (A+/P+), necrosis (A−/P+), and normal (A−/P−) cells that can be quantified by flow cytometry.
(§3) The cell cycle and the type of cell death induced by the test compounds were measured by using flow cytometry according to the manufacturer’s protocol. […] Control cells were grown with fresh medium supplemented with 0.5% DMSO. After 24 h of incubation, the cells were collected by trypsinization. Then, samples were centrifuged (3 min, 2000 rpm, RT) and washed with PBS, after which the cells were centrifuged again (3 min, 2000 rpm, RT) and the supernatant was carefully removed. The resulting precipitate contained cells, which were used for flow cytometry experiments.
(§4) The fraction of dead cells after treatment with the test compounds were detected using the FITC Annexin-V Apoptosis Detection Kit with PI (BioLegend, San Diego, CA, USA). […] 250 μL of the Annexin-V Binding Buffer was then added and the samples were incubated in the dark on ice for 15 min.

The test system of data set [3] is MCF-7 cells. Description: MTT viability with GLUT1 inhibitor EDG, MCF-7. The class given is cell-based, human. Particulars: 100 µM EDG, 72 h. The procedure: as §1
In data set [4] the test system is HCT-116 cells. Put plainly: Annexin V-FITC/PI apoptosis flow cytometry, HCT-116. In kind it is cell-based, human. The settings on record: IC50 dose, 24 h.
From the text: as §2, §3, §4

The test system of data set [5] is MCF-7 cells. Description: MTT cytotoxicity assay, MCF-7. In kind it is cell-based, human. The settings on record: Homo sapiens, MCF7; MTT, incubation time 72 h. The procedure:
(§5) An in vitro biological test package was performed for the obtained derivatives. […] The MTT test is a colorimetric method for detecting proliferating cells. It is based on the ability of the enzyme mitochondrial dehydrogenase to convert yellow tetrazole salt (MTT) into purple formazan. The amount of the product formed in the reaction, determined spectrophotometrically, is proportional to the number of living cells.
(§6) The in vitro cytotoxicity of the test compounds was determined by the MTT (3-[4,5–dimethylthiazol-2-yl]-2,5-diphenyltetrazolium bromide) test (Sigma-Aldrich, Taufkirchen, Germany) according to the manufacturer’s protocol. At the beginning, for each cell line were determined the optimal seeding densities to ensure exponential growth throughout the experimental period. The confluent layer of cells were trypsinized, collected, and suspended in a growth medium. […] Then, the culture medium was replaced with solutions of different concentrations of test compounds in a fresh medium. Stock solutions of test compounds were prepared in DMSO and diluted to final concentrations with appropriate volumes of the growth medium directly before the experiment. Cells suspended in a medium supplemented with 0.5% DMSO (the amount of DMSO necessary to dissolve the highest dose of the respective sample) were used as a control of the experiment. […] The compound-treated cells were incubated for a further 24–72 h. […] After this time, the MTT dye was carefully removed, and the acquired formazan crystals were dissolved by DMSO (Chempur, Piekary Śląskie, Poland). The proliferation was evaluated by measuring the formazan product’s absorbance at a wavelength of 570 nm with a microplate spectrophotometer (Epoch, BioTek, Winooski, VT, USA). All experiments were conducted in triplicate with four technical repeats for each tested concentration. Results were expressed as the percentage change in the viability of the test cells relative to the untreated control cells and calculated as the inhibitory concentration (IC50). […] The results are expressed as the average value ± standard deviation (SD).

Data set [6] concerns HCT-116 cells. Put plainly: MTT cytotoxicity assay, HCT-116. The settings on record: Homo sapiens, HCT-116; MTT, incubation time 24 h. The class given is cell-based, human. The procedure:
as §5, §6

Regarding `Oc1cccc2cccnc12` [Compound 8HQ, 8-hydroxyquinoline, reference compound], the “cell cycle phase distribution in words, NHDF-Neo” value in the data set with NHDF-Neo cells was “subG1 phase increasing”. Besides, the “effect of EDG inhibitor in words, HCT-116” value in the data set on HCT-116 cells [1] is on record as “did not have any effect on the cellular uptake”. Besides, the “apoptosis induction in words, MCF-7” value with MCF-7 cells [2] is given as “results were similar to the control fraction”. Moreover, the “effect of EDG inhibitor in words, MCF-7” value in the data set on MCF-7 cells [3] is “did not have any effect on the cellular uptake”. Besides, in the data set with HCT-116 cells [4], the “apoptosis induction in words, HCT-116” value was “results were similar to the control fraction”.
In the case of `CC(=O)O[C@@H]1[C@@H](OC(C)=O)[C@@H](O[C@H]2O[C@H](CN=[N+]=[N-])[C@@H](OC(C)=O)[C@H](OC(C)=O)[C@H]2OC(C)=O)O[C@H](CN=[N+]=[N-])[C@H]1OC(C)=O` [Compound 23, 2,3,4,2′,3′,4′-hexa-O-acetyl-6,6′-diazido-6,6′-dideoxy-D-trehalose], the melting point lay within 92 to 93 °C. For the same compound, in the data set with MCF-7 cells [5], the IC50 was above 800 µM. For the same compound, the IC50 in the data set with HCT-116 cells [6] is above 800 µM.
